In data set [1] the target is T1, human Endothelial Differentiation G-protein Coupled Receptor 3 (EDG3), S1P3 receptor (Homo sapiens, UniProt Q99500).
T1 construct: expressed in transfected cells; host or cells: GeneBLAzer EDG3-Ga15-NFAT-bla HEK 293T
Put plainly: S1P3 Assay (GeneBLAzer EDG3-Ga15-NFAT-bla HEK 293T beta-lactamase reporter, agonist dose response). It is filed as cell-based. Conditions: EDG3-Ga15-NFAT-bla HEK 293T cells, blue/green emission ratio, 10 point dose response, free base or salt form; read-out: pEC50 (S1P3 assay) (converted). The method in brief: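 HEK 293T cells stably expressing human EDG3 with Ga15 and NFAT-beta-lactamase reporter, ~10,000 cells/well, exposed overnight at 37 °C to 10-point compound doses in charcoal-stripped serum medium. CCF4-AM substrate loaded 2 h at room temperature; 460/530 nm ratio normalized to DMSO and agonist controls, sigmoidal fit; intrinsic activity relative to reference agonist maximum (100%).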

Data set [2] deals with T2, human Endothelial Differentiation Gene 1 (EDG1), S1P1 receptor (Homo sapiens, UniProt P21453).
T2 construct: TEV protease site; Gal4-VP16 transcription factor; expressed in transfected cells; host or cells: EDG1-bla/U2OS (Tango GPCR-bla U2OS parental cell line)
The data set is described as follows: S1P1 Assay (Tango EDG1-bla/U2OS beta-lactamase reporter, agonist dose response). The class given is cell-based. Conditions: EDG1-bla/U2OS cells, blue/green emission ratio, 10 point dose response, free base or salt form; read-out: pEC50 (S1P1 assay) (converted). The method in brief: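 U2OS Tango cells with human EDG1 coupled to TEV site/Gal4-VP16 beta-lactamase reporter, serum-starved 24 h, then exposed overnight at 37 °C to 10-point compound dilutions. CCF4-AM FRET substrate 2 h RT; 460/530 nm ratio normalised to agonist and DMSO controls, sigmoidal fit; intrinsic activity relative to a reference compound set at 100%.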

The conditions of data set [3]: clinical studies, Kappos et al 2006; cited from earlier work.

Counter-ions that a name gives are not always drawn. A value given as a limit tells only on which side of the number the result lay.

T1 sequence (Q99500 whole entry): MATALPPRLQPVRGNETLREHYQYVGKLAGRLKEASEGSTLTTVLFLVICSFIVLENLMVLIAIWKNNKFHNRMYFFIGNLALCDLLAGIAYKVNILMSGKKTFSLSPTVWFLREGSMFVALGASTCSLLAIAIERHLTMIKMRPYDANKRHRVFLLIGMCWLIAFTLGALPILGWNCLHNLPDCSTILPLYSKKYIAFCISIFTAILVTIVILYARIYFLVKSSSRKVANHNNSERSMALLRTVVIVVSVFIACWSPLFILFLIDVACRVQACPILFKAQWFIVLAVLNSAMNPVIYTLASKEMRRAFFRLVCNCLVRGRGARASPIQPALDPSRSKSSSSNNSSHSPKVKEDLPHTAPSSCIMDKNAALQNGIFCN
T2 sequence (P21453 whole entry, the tested form may be a part): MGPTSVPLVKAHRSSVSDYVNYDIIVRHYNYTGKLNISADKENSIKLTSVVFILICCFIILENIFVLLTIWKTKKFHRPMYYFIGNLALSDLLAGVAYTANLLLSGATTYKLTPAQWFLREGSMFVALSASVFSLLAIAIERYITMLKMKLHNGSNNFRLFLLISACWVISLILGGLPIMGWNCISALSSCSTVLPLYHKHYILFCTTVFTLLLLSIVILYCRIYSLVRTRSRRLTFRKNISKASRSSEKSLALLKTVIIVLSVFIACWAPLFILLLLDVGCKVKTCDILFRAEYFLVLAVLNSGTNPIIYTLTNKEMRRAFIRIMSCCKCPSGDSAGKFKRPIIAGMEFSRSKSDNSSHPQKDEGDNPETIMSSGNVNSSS

On to `CCc1c(CCN2CCC[C@H]2C(=O)O)cccc1-c1nnc(-c2ccc(CC(C)C)c(C#N)c2)s1` [Example 59, 1-[2-(3-{5-[3-cyano-4-(2-methylpropyl)phenyl]-1,3,4-thiadiazol-2-yl}-2-ethylphenyl)ethyl]-L-proline], for which the EC50 in data set [1] is greater than 10000 nM; in data set [2] it was no more than 10 nM.

As for `CCc1c(CCN2CCC(C(=O)O)C2)cccc1-c1nnc(-c2ccc(CC(C)C)c(C#N)c2)s1` (stereo not shown) [Example 61], the EC50 in data set [1] is greater than 3160 nM; in data set [2], less than 1 nM.

As for `CCc1c(CCN2CC[C@H](C(=O)O)C2)cccc1-c1nnc(-c2ccc(CC(C)C)c(C#N)c2)s1` [Example 62], the values for the EC50 in data set [1] and in data set [2] were greater than 3160 nM and less than 1 nM, respectively.

Turning to `CCc1c(CCN2CCCC(C(=O)O)C2)cccc1-c1nnc(-c2ccc(CC(C)C)c(C#N)c2)s1` (stereo not shown) [Example 63], the values for the EC50 in data set [1] and in data set [2] were greater than 3160 nM and less than 1 nM, respectively.

As to `CCc1c(CCN2CCC[C@H](C(=O)O)C2)cccc1-c1nnc(-c2ccc(CC(C)C)c(C#N)c2)s1` [Example 64], the EC50 in data set [1] is greater than 3160 nM; in data set [2], less than 1 nM.

Consider `CCc1c(CCN2CCC[C@H]2C(=O)O)cccc1-c1nsc(-c2ccc(OC(C)C)c(Cl)c2)n1` [Example 65, 1-{2-[3-(5-{3-chloro-4-[(1-methylethyl)oxy]phenyl}-1,2,4-thiadiazol-3-yl)-2-ethylphenyl]ethyl}-L-proline trifluoroacetate], for which the EC50 in data set [1] is greater than 3160 nM; in data set [2], no more than 10 nM.

Regarding `CCc1c(CCN2C[C@H](O)C[C@H]2C(=O)O)cccc1-c1nsc(-c2ccc(OC(C)C)c(Cl)c2)n1` [Example 69], the EC50 is greater than 3160 nM in data set [1] and less than 1 nM in data set [2].

Regarding `CCc1c(CCN2CCCC(C(=O)O)C2)cccc1-c1nsc(-c2ccc(OC(C)C)c(Cl)c2)n1` (stereo not shown) [Example 70], the figures for the EC50 in data set [1] and in data set [2] were greater than 3160 nM and less than 1 nM, respectively.

Regarding `CCc1c(CCN2CCC(CC(=O)O)CC2)cccc1-c1nsc(-c2ccc(OC(C)C)c(Cl)c2)n1` [Example 72], the EC50 in data set [1] is greater than 3160 nM; in data set [2], no more than 10 nM.

On to `COc1c(CCN2CCC(C(=O)O)CC2)cccc1-c1nsc(-c2ccc(OC(C)C)c(Cl)c2)n1` [Example 73, 1-{2-[3-(5-{3-chloro-4-[(1-methylethyl)oxy]phenyl}-1,2,4-thiadiazol-3-yl)-2-(methyloxy)phenyl]ethyl}-4-piperidinecarboxylic acid trifluoroacetate], for which the EC50 is greater than 3160 nM in data set [1] and no more than 10 nM in data set [2].

For `Cc1c(CCN2CCC(C(=O)O)CC2)cccc1-c1nsc(-c2ccc(OC(C)C)c(Cl)c2)n1` [Example 74, 1-{2-[3-(5-{3-chloro-4-[(1-methylethyl)oxy]phenyl}-1,2,4-thiadiazol-3-yl)-2-methylphenyl]ethyl}-4-piperidinecarboxylic acid], the figures for the EC50 in data set [1] and in data set [2] were greater than 3160 nM and less than 1 nM, respectively.

Regarding `CCc1c(CCN2CCC(C(=O)O)CC2)cccc1-c1nsc(-c2cnc(OC(C)C)c(Cl)c2)n1` [Example 75, 1-{2-[3-(5-{5-chloro-6-[(1-methylethyl)oxy]-3-pyridinyl}-1,2,4-thiadiazol-3-yl)-2-ethylphenyl]ethyl}-4-piperidinecarboxylic acid trifluoroacetate], the EC50 in data set [1] is greater than 3160 nM; in data set [2], no more than 10 nM.

For the compound `CCc1c(CCN2CCC[C@H]2C(=O)O)cccc1-c1nsc(-c2ccc(CC(C)C)c(C#N)c2)n1` [Example 76, 1-[2-(3-{5-[3-cyano-4-(2-methylpropyl)phenyl]-1,2,4-thiadiazol-3-yl}-2-ethylphenyl)ethyl]-L-proline trifluoroacetate], the EC50 in data set [1] was greater than 3160 nM; in data set [2], no more than 10 nM.

On to `CCc1c(CCN2CCC(C(=O)O)C2)cccc1-c1nsc(-c2ccc(CC(C)C)c(C#N)c2)n1` (stereo not shown) [Example 78], for which the figures for the EC50 in data set [1] and in data set [2] were greater than 3160 nM and no more than 10 nM, respectively.

On to `CCc1c(CCN2CC[C@H](C(=O)O)C2)cccc1-c1nsc(-c2ccc(CC(C)C)c(C#N)c2)n1` [Example 79], for which the values for the EC50 in data set [1] and in data set [2] were greater than 3160 nM and no more than 10 nM, respectively.

Turning to `CCc1c(CCN2CCC[C@H](C(=O)O)C2)cccc1-c1nsc(-c2ccc(CC(C)C)c(C#N)c2)n1` [Example 80], the EC50 in data set [1] is greater than 3160 nM; in data set [2], less than 1 nM.

As for `CCc1c(CN2CCC(C(=O)O)C2)cccc1-c1cnc(-c2ccc(OC(C)C)c(C#N)c2)s1` (stereo not shown) [Example 83], the EC50 in data set [1] is greater than 10000 nM; in data set [2] it was no more than 10 nM.

As for `CCc1c(CN2CC[C@H](C(=O)O)C2)cccc1-c1cnc(-c2ccc(OC(C)C)c(C#N)c2)s1` [Example 84], the EC50 in data set [1] is greater than 10000 nM; in data set [2] it was no more than 10 nM.

Consider `CCc1c(CN2CCC(CC(=O)O)CC2)cccc1-c1cnc(-c2ccc(OC(C)C)c(C#N)c2)s1` [Example 87], for which the EC50 in data set [1] is greater than 10000 nM; in data set [2], less than 100 nM.

Turning to `CCc1c(CCN2CCC[C@H]2C(=O)O)cccc1-c1cnc(-c2ccc(OC(C)C)c(C#N)c2)s1` [Example 88, 1-{2-[3-(2-{3-cyano-4-[(1-methylethyl)oxy]phenyl}-1,3-thiazol-5-yl)-2-ethylphenyl]ethyl}-L-proline trifluoroacetate], the EC50 in data set [1] is greater than 10000 nM; in data set [2] it was no more than 10 nM.

With `CCc1c(CCN2C[C@H](O)C[C@H]2C(=O)O)cccc1-c1cnc(-c2ccc(OC(C)C)c(C#N)c2)s1` [Example 91], the EC50 is greater than 10000 nM in data set [1] and no more than 10 nM in data set [2].

In the case of `CCc1c(CCN2CCCC(C(=O)O)C2)cccc1-c1cnc(-c2ccc(OC(C)C)c(C#N)c2)s1` (stereo not shown) [Example 92], the EC50 in data set [1] was greater than 3160 nM; in data set [2], less than 1 nM.

On to `CCc1c(CCCN2CC(C(=O)O)C2)cccc1-c1cnc(-c2ccc(OC(C)C)c(C#N)c2)s1` [Example 93, 1-{3-[3-(2-{3-cyano-4-[(1-methylethyl)oxy]phenyl}-1,3-thiazol-5-yl)-2-ethylphenyl]propyl}-3-azetidinecarboxylic acid trifluoroacetate], for which the EC50 is greater than 3160 nM in data set [1] and less than 1 nM in data set [2].

Take `CCc1c(CCCN2CCC(C(=O)O)C2)cccc1-c1cnc(-c2ccc(OC(C)C)c(C#N)c2)s1` (stereo not shown) [Example 94]: the EC50 in data set [1] is greater than 3160 nM; in data set [2], no more than 10 nM.

Regarding `CCc1c(-c2nsc(-c3ccc(OC(C)C)c(Cl)c3)n2)cccc1C1CCN(CC(=O)O)CC1` [Example 99, {4-[3-(5-{3-chloro-4-[(1-methylethyl)oxy]phenyl}-1,2,4-thiadiazol-3-yl)-2-ethylphenyl]-1-piperidinyl}acetic acid trifluoroacetate], the EC50 in data set [1] was greater than 3160 nM; in data set [2], no more than 10 nM.

Regarding `CCc1c(-c2nsc(-c3ccc(OC(C)C)c(Cl)c3)n2)cccc1C1CCN(CCC(=O)O)CC1` [Example 100, 3-{4-[3-(5-{3-chloro-4-[(1-methylethyl)oxy]phenyl}-1,2,4-thiadiazol-3-yl)-2-ethylphenyl]-1-piperidinyl}propanoic acid], the EC50 in data set [1] was greater than 10000 nM; in data set [2] it was no more than 10 nM.

With `CCc1c(-c2nsc(-c3ccc(OC(C)C)c(Cl)c3)n2)cccc1C1CCN(CCCC(=O)O)CC1` [Example 102, 4-{4-[3-(5-{3-chloro-4-[(1-methylethyl)oxy]phenyl}-1,2,4-thiadiazol-3-yl)-2-ethylphenyl]-1-piperidinyl}butanoic acid trifluoroacetate], the figures for the EC50 in data set [1] and in data set [2] were greater than 10000 nM and no more than 10 nM, respectively.

As for `CCc1c(-c2nsc(-c3ccc(CC(C)C)c(C#N)c3)n2)cccc1C1CN(CCCC(=O)O)C1` [Example 104, 4-[3-(3-{5-[3-cyano-4-(2-methylpropyl)phenyl]-1,2,4-thiadiazol-3-yl}-2-ethylphenyl)-1-azetidinyl]butanoic acid trifluoroacetate], the EC50 in data set [1] was greater than 10000 nM; in data set [2] it was no more than 10 nM.

As for `CCc1c(CC2CCN(CC(=O)O)CC2)cccc1-c1nsc(-c2ccc(OC(C)C)c(Cl)c2)n1` [Example 105, (4-{[3-(5-{3-chloro-4-[(1-methylethyl)oxy]phenyl}-1,2,4-thiadiazol-3-yl)-2-ethylphenyl]methyl}-1-piperidinyl)acetic acid trifluoroacetate], the EC50 is greater than 10000 nM in data set [1] and less than 100 nM in data set [2].

On to `CCc1c(CC2CCN(CCC(=O)O)CC2)cccc1-c1nsc(-c2ccc(OC(C)C)c(Cl)c2)n1` [Example 106, 3-(4-{[3-(5-{3-chloro-4-[(1-methylethyl)oxy]phenyl}-1,2,4-thiadiazol-3-yl)-2-ethylphenyl]methyl}-1-piperidinyl)propanoic acid trifluoroacetate], for which the results for the EC50 in data set [1] and in data set [2] were greater than 3160 nM and less than 100 nM, respectively.

As for `CCCCCCCCc1ccc(CCC(N)(CO)CO)cc1` [FTY720], the bradycardia on treatment entry in data set [3] is given as “bradycardia in the first 24 hours of treatment”.

The record behind these values is patent US8389508B2 (Glaxo Group Limited, priority 2010, dated 2013).
